Here are results for 1 compound from US7700637B2, “Organic compounds” (Novartis AG, priority 2003, dated 2010).

In one data set the test system is C57BL ob/ob mice. Kind of data set: glucose and insulin lowering activity in vivo in ob/ob mice. The following applies: daily dose of about 30 mg/kg p.o. in the ob/ob mice. The procedure: The glucose and insulin lowering activity in vivo can be evaluated as follows:
Adult male C57BL ob/ob mice (Jackson Lab, Bar Harbor, Me.) at the age of 11 weeks are housed six per cage in a reversed light cycle room (light on from 6:00 p.m. to 6:00 a.m.) and given access to Purina rodent chow and water ad libitum. On day 1 tail blood samples are taken at 8:00 am and plasma glucose levels are determined. The animals are randomly assigned to the control and compound groups. The means of plasma glucose values of the groups were matched. Animals are then orally dosed with vehicle (0.5% carboxymethyl-cellulose with 0.2% Tween-80) or compounds (at 30 mg/kg) in vehicle. The mice are dosed daily for a total of 3 days. On day 4 basal blood samples are taken. The plasma samples are analyzed for glucose concentrations using a YS12700 Dual Channel Biochemistry Analyzer (Yellow Springs Instrument Co., Yellow Springs, Ohio) and insulin concentrations using an ELISA assay.

The target in data set [1] is T1, PPARα receptor (GST-hPPARα LBD) (Homo sapiens, UniProt Q07869).
T1 construct: made in house; host or cells: E. coli BL21 (DE3)
T1 sequence (Q07869 167-468): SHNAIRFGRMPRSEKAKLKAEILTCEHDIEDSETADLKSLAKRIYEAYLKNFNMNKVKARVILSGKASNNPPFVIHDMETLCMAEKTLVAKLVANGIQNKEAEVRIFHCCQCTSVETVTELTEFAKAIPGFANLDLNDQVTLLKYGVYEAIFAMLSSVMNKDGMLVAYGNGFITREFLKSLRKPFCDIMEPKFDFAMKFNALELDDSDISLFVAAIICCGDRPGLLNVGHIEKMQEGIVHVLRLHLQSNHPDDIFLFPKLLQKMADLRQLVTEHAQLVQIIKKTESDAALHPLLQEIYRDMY
Nature of the data set: PPARα receptor functional binding assay (CARLA, TR-FRET). Type of data set: biochemical. The following applies: SRC-1 peptide recruitment. The procedure: (§1) The in vitro functional binding to the PPARα, PPARδ and PPARγ receptors is determined as follows:
(§2) The functional binding assays for the PPARα, PPARδ and PPARγ receptors are a variation of the coactivator-dependent receptor ligand assay (CARLA) (Krey et al., Molecular Endocrinology 1997, 11, 779-791). The present CARLA assays use a TR-FRET detection method previously reviewed (Hemmila, J. Biomol. Screening 1999, 4, 303-307; Mathis, J. Biomol. Screening 1999, 4, 309-313). All assays included 3 nM of the glutathione-S-transferase (GST) fusion proteins of either the hPPARα ligand binding domain (LBD) (amino acids 167-468) (GST-hPPARα LBD), GST-hPPARδ LBD (amino acids 139-442) or GST-hPPARγ LBD (amino acids 175-476); 3 nM Eu-labelled anti-GST antibody (Wallac); 30 nM biotinylated steroid receptor coactivator-1 (SRC-1) peptide (an N-terminal biotinylated peptide, […], derived from amino acids 676-700 of SRC-1); and 10 nM streptavidin-labelled allophycocyanin (APC; Prozyme). […] This brings the Eu-labelled anti-GST antibody and the strepavidin-labelled APC in close proximity, thereby facilitating fluorescence energy transfer. […] After mixing all components, the reaction mixture stands for 3 h at RT before reading the TR-FRET signal on a Wallac Victor 2 plate reader (measuring the ratio of signals at 665 nm and 620 nm). […]
(In TR-FRET formats the signal depends on donor and acceptor labels being close together.)

Data set [2] has as its target T2, PPARγ receptor (GST-hPPARγ LBD) (Homo sapiens, UniProt P37231).
T2 construct: GST-hPPARγ LBD (amino acids 175-476); made in house; host or cells: E. coli BL21 (DE3)
T2 sequence (P37231 175-476 isoform P37231-2): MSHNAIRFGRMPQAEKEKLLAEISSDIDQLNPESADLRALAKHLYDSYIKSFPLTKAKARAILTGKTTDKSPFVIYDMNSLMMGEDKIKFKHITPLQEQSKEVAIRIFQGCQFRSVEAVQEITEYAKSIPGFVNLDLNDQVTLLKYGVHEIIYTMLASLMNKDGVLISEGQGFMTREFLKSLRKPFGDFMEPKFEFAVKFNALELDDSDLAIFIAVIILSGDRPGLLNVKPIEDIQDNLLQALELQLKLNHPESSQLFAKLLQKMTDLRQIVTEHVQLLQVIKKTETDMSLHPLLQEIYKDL
Nature of the data set: PPARγ receptor functional binding assay (CARLA, TR-FRET). It counts as biochemical. Particulars: SRC-1 peptide recruitment. The procedure: as §1, §2

Data set [3] concerns the target T3, PPARδ receptor (GST-hPPARδ LBD) (Homo sapiens, UniProt Q03181).
T3 construct: GST-hPPARδ LBD (amino acids 139-442); made in house; host or cells: E. coli BL21 (DE3)
T3 sequence (Q03181 139-441 limits assumed): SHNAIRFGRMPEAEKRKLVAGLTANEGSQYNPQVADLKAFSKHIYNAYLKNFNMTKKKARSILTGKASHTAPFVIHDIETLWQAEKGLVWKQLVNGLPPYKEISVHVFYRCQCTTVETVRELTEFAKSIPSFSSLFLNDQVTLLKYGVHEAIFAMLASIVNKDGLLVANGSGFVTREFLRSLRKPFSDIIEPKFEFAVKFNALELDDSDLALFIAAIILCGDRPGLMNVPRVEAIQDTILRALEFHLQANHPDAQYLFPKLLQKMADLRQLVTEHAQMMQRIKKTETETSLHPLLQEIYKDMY
T3 sequence (Q15788 676-700 partner limits assumed): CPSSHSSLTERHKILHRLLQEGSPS
Nature of the data set: PPARδ receptor functional binding assay (CARLA, TR-FRET). Particulars: SRC-1 peptide recruitment. It counts as biochemical. The procedure: as §1, §2

Structures are written as SMILES.

For orientation: EC50 means the concentration needed to bring the measured effect to its halfway point. Usually melting point stands for the temperature, or range, at which the solid turns liquid.

`Cc1cccc(NS(=O)(=O)c2ccc(OCc3nc(-c4ccccc4)oc3C)cc2)c1C(=O)O` [Example 1, 2-Methyl-6-[4-(5-methyl-2-phenyl-oxazol-4-ylmethoxy)-benzenesulfonylamino]-benzoic acid] registered a melting point of 167 to 170 °C. For the same compound, in the data set with C57BL ob/ob mice, the serum glucose levels result is recorded as “significantly lowers” and the serum insulin levels entry is given as “significantly lowers”. Moreover, in data set [1], the EC50 was around 8 nM. In data set [2], this compound had an EC50 of around 5 nM. In addition, the EC50 in data set [3] is around 3500 nM.
